The source of these data is publication PMC10489817, “2-Alkyl-Substituted-4-Amino-Thieno[2,3-d]Pyrimidines: Anti-Proliferative Properties to In Vitro Breast Cancer Models” (Molecules, 2023).

The data set relates to BALB 3T3 cells. Nature of the data set: in vitro 3T3 NRU test, cytotoxicity. Type of data set: cell-based, mouse. Conditions: for IC50: BALB 3T3, value in brackets. The protocol: Compounds 2–5 were studied for cytotoxicity/phototoxicity by an in vitro 3T3 NRU-test. The cell line BALB 3T3, clone A31 (mouse embryo fibroblasts), was incubated with the test compounds at a concentration from 15 to 4000 µg/mL for 24 h at 37 °C, 5% CO2, and 95% humidity. The cytotoxicity and phototoxicity were expressed in percentages relative to the negative control determined. […] Based on the dose–response curves, the CC50/PC50 values (50% cytotoxic/phototoxic concentration) were calculated by nonlinear regression analysis (Table 1). The CC50 values can be used to calculate the PIF (photo-irritancy factor) for each test compound according to the following formula: PIF = CC50/PC50.
BALB/3T3 cells were cultured in 75 cm^2 tissue culture flasks in DMEM, 10% FBS, 2 mM glutamine, and antibiotics (penicillin 100 U/mL and streptomycin-100 µg/mL) at 37 °C, 5% CO2, and 90% relative humidity. Cytotoxicity/phototoxicity was assessed by a validated BALB/3T3 clone A31 neutral red uptake assay (3T3 NRU test). Briefly, cells were plated in a 96-well microtiter plate at a density of 1 × 10^4 cells/100 µL/well and incubated for 24 h. A wide concentration range was applied for the test compounds. For the phototoxicity tests, 96-well plates were irradiated with a dose of 2.4 J/cm^2, and the cells were incubated for an additional 24 h. After treatment with neutral red medium, washing, and treatment with the ethanol/acetic acid solution, the absorption was measured on a TECAN microplate reader (TECAN, Grödig, Austria) at a wavelength of 540 nm. The light source which we used was a light-emitting diode (LED) matrix—an artificial solar light simulator Helios-iO, model LE-9ND55-H—5500K (SERIC Ltd., Tokyo, Japan).
Cytotoxicity/phototoxicity were expressed as CC50/PC50 values (concentrations required for 50% cytotoxicity/phototoxicity), calculated using non-linear regression analysis (GraphPad Software GraphPad Prism 9.5.1, San Diego, CA, USA). The CC50 values were used to calculate the PIF (photo-irritancy factor) for each test substance, according to the following formula: […]

SMILES strings stand for the structures.

The compound `CCOC(=O)c1sc2nc(CC)nc(N)c2c1C` [Compound 4, Ethyl 4-Amino-2-Ethyl-5-Methylthieno[2,3-d]Pyrimidine-6-Carboxylate] showed an IC50 of 6.4 mM. For the same compound, under “BALB 3T3, 24 h, NRU, no irradiation (CC50)”, the “IC50 of Mean ± SD, Cytotoxicity” value is reported as 1678 ± 70.4 µg/mL.

For `CCOC(=O)Cc1nc(N)c2c(C)c(C(=O)OCC)sc2n1` [Compound 2, Ethyl 4-Amino-2-(2-Ethoxy-2-Oxoethyl)-5-Methylthieno[2,3-d]Pyrimidine-6-Carboxylate], inhibition was half-maximal at 5.4 mM (IC50).

In general, IC50 refers to the concentration needed to halve the response being measured.
